Measured values from ChEMBL document CHEMBL5223149, “The Emerging Landscape of Small-Molecule Therapeutics for the Treatment of Huntington's Disease” (J Med Chem, 2022).
Converted amounts (≈) assume the structure as drawn.

Columns and labels:
in vivo = conditions: mouse, po
[1] = Solubility of the compound; assay type: physicochemical
[2] = target: T1, Protein-glutamine gamma-glutamyltransferase (Homo sapiens, UniProt P21980); test: Inhibition of TG2 (unknown origin)
T1 sequence (P21980 whole entry): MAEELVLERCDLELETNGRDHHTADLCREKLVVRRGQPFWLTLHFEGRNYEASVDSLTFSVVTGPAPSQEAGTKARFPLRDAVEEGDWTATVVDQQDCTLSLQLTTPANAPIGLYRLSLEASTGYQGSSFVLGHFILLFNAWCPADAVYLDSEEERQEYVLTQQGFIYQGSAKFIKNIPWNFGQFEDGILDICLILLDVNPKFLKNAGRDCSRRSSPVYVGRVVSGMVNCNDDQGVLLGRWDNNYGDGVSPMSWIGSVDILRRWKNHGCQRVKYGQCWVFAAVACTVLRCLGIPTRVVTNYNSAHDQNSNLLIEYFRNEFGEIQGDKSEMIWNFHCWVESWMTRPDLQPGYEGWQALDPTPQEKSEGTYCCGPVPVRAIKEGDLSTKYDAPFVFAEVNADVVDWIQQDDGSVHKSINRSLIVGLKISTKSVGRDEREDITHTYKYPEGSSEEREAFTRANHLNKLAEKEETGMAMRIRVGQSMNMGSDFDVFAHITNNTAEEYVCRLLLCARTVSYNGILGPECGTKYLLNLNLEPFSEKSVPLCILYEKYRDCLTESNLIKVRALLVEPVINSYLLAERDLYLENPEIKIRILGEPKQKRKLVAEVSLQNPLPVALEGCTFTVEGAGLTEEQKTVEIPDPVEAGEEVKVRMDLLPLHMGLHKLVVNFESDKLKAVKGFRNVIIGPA

SMILES	bioavailability (in vivo) [%]	solubility [1] [µg/mL]	IC50 [2] [nM]
O=c1cc(N2CCOCC2)cc(N2CCCCC[C@@H]2Cc2ccccc2)[nH]1	68	58 (≈ 158 µM)	
C=CC(=O)NCCCCC(NC(=O)OCc1ccccc1)C(=O)N1CCN(c2ccccc2Cl)CC1 (stereo not drawn)			62
